From patent US10815199B2, “NMDA antagonist prodrugs” (priority 2013, dated 2020) come the findings set out here.

Where a name gives a salt, the structure may show the parent alone. Read-outs that look alike come from different tables or passages of the source.

Data set [1] is described as follows: Hum Liver Assay (human liver S9 fraction). Format: in vitro ADME. An excerpt: This example illustrates that different prodrugs of (S)-1-phenyl-2-(pyridin-2-yl)ethanamine, wherein R1 is C1-6 alkylC(O)O(C1-6 alkoxy), may be used to achieve differing rates of conversion (i.e., slow or rapid) to (S)-1-phenyl-2-(pyridin-2-yl)ethanamine to ascertain a suitable PK profile. […] Further, this Example illustrates that there is no expected loss in oral exposure when a prodrug is converted to free base. Conversion of a prodrug wherein R1 is C1-6 alkylC(O)O(C1-6 alkoxy) to (S)-1-phenyl-2-(pyridin-2-yl)ethanamine is expected to occur via an initial enzymatic hydrolysis of a functional group, such as an ester, followed by a spontaneous conversion to (S)-1-phenyl-2-(pyridin-2-yl)ethanamine. Enzymes involved are expected to be several non-specific, high capacity esterases, which can be shown by inhibiting the conversion with a non-selective esterase inhibitor but not inhibiting the conversion using selective inhibitors. Such esterases are expected to be distributed throughout the human body. Human Intestinal Fluid (HIF), human liver S9 fraction and human whole blood have been used to examine the pharmacokinetic properties of the prodrugs of (S)-1-phenyl-2-(pyridin-2-yl)ethanamine as well as the formation rate and formation extent of the (S)-1-phenyl-2-(pyridin-2-yl)ethanamine in different bodily compartments. The formation rate of (S)-1-phenyl-2-(pyridin-2-yl)ethanamine from different prodrugs of (S)-1-phenyl-2-(pyridin-2-yl)ethanamine differs markedly in all tested assays, as shown in Table 1.
Human Intestinal Fluids (HIF), Human Liver and Human Blood assays used to generate the results shown in Table 1 have been described in Malmborg J & Ploeger B A, J Pharmacol Toxicol Methods (2013) May-June 67(3) 203-13, which is incorporated by reference herein.
(§1) [drawing 48] is expected to occur via enzymatic hydrolysis at the proline C-terminus, releasing a dipeptide and (S)-1-phenyl-2-(pyridin-2-yl)ethanamine. The enzyme involved is expected to be dipeptidyl peptidase IV (DPPIV), which can be shown by inhibiting the conversion with a selective inhibitor of this enzyme. DPPIV is expected to be distributed throughout the human body. Human Intestinal Fluid (HIF), human liver S9 fraction and human whole blood have been used to examine the pharmacokinetic properties of prodrugs of (S)-1-phenyl-2-(pyridin-2-yl)ethanamine as well as the formation rate and formation extent of the (S)-1-phenyl-2-(pyridin-2-yl)ethanamine in different bodily compartments. Caco-2 cells have been used to evaluate the permeability and absorption potential of the prodrugs of (S)-1-phenyl-2-(pyridin-2-yl)ethanamine. The formation rate of (S)-1-phenyl-2-(pyridin-2-yl)ethanamine from different prodrugs of (S)-1-phenyl-2-(pyridin-2-yl)ethanamine differed in the tested assays, especially in human blood, as shown in Table 2.

A further data set deals with Seizures in dog. The data set can be described thus: Seizures in dog (NOEL/LOEL) after oral gavage. Format: in vivo. To be noted: for LOEL Seizures in dog (Dose administered) / NOEL Seizures in dog (Dose administered): oral gavage, dose reflects free base concentration. How it is done: This example illustrates that when doses of prodrug of (S)-1-phenyl-2-(pyridin-2-yl)ethanamine dihydrochloride (Example 5) and (S)-1-phenyl-2-(pyridin-2-yl)ethanamine dihydrochloride were administered to dogs, the risk of seizures, as represented by NOEL and LOEL, was less with the prodrug.
(S)-1-phenyl-2-(pyridin-2-yl)ethanamine dihydrochloride and vehicle were administered once per day via oral gavage (water). Formulations were prepared twice, once weekly. Dosing formulations were stored and refrigerated (2-8° C.) in amber glass containers until required for dosing. A range of concentrations of (S)-1-phenyl-2-(pyridin-2-yl)ethanamine dihydrochloride in vehicle were prepared in order to keep the dose volume for all doses (1 mL/kg). Individual doses were based on the most recent body weights of dogs used in the study.
A prodrug of (S)-1-phenyl-2-(pyridin-2-yl)ethanamine as fumarate salt (example 5) and vehicle were administered once per day for 14 days via oral gavage at approximately the same time each day (±1 hour), (vehicle is 0.3 M gluconic acid pH 3.0). A range of concentrations of prodrug of (S)-1-phenyl-2-(pyridin-2-yl)ethanamine as fumarate salt in vehicle were prepared (for example 3, 10 and 30 mg/mL of prodrug of (S)-1-phenyl-2-(pyridin-2-yl)ethanamine) in order to keep the dose volume for all doses (2 mL/kg). The dosing formulations were warmed to room temperature by stirring for at least 30 minutes prior to dosing and continuously throughout the administration procedure. Individual doses were based on the most recent body weights of dogs used in the study.
Table 4 Compound 1 is (S)-1-phenyl-2-(pyridin-2-yl)ethanamine. […] In each case the highest blood concentration (Cmax) of free base (S)-1-phenyl-2-(pyridin-2-yl)ethanamine is measured. In the first case, the free base (S)-1-phenyl-2-(pyridin-2-yl)ethanamine is generated directly from Compound 1, administered as the dihydrochloride salt. In the second case, the free base (S)-1-phenyl-2-(pyridin-2-yl)ethanamine is generated via in vivo conversion from a prodrug of Compound 1, administered as the fumarate salt. The NOEL for seizures was higher when the prodrug of (S)-1-phenyl-2-(pyridin-2-yl)ethanamine as fumarate salt was administered compared to when (S)-1-phenyl-2-(pyridin-2-yl)ethanamine as dihydrochloride salt was administered.

A further data set in a line: Caco-2 permeability. Format: in vitro ADME. The following applies: human; Caco-2 cells.
Text: as §1
(In general: Caco-2 cells form a polarised layer with tight junctions and transporters.)

Data set [2] can be described thus: Conversion of prodrug at increasing initial concentrations in human intestinal fluid (LC-UV). Format: in vitro ADME. The following applies: initial concentrations 33, 100, 300 and 600 μmol/L, FIG. 1a and 1b. The procedure: FIGS. 1a and 1b illustrates the conversion of prodrug of (S)-1-phenyl-2-(pyridin-2-yl)ethanamine (Example 5) to (S)-1-phenyl-2-(pyridin-2-yl)ethanamine during an incubation period in human intestinal fluid. In particular, FIG. 1a illustrates prodrug of (S)-1-phenyl-2-(pyridin-2-yl)ethanamine (Example 5) concentration (initial concentrations of 30, 100, 300 and 600 as it transforms to (S)-1-phenyl-2-(pyridin-2-yl)ethanamine, during an incubation period in human intestinal fluid. FIG. 1b illustrates (S)-1-phenyl-2-(pyridin-2-yl)ethanamine concentration, as it converts from prodrug of (S)-1-phenyl-2-(pyridin-2-yl)ethanamine (Example 5, initial concentrations of 30, 100, 300 and 600 μM), during an incubation period in human intestinal fluid. […]
Stock solutions of prodrug of (S)-1-phenyl-2-(pyridin-2-yl)ethanamine (0.33, 1, 3 and 6 mmol/L) were prepared by adding a volume (8.25, 25, 75 and 150 μL) of 20 mmol/L solution of prodrug of (S)-1-phenyl-2-(pyridin-2-yl)ethanamine dissolved in DMSO, to FaSSIF-v2 (491.75, 475, 425 and 350 μL). […] The conversion rate from prodrug to (S)-1-phenyl-2-(pyridin-2-yl)ethanamine was determined by fitting the measured prodrug and (S)-1-phenyl-2-(pyridin-2-yl)ethanamine concentrations versus time.

The mark [3] stands for this setting: human, s9, Table 1, read-out: Prodrug Clint Hum Liver S9.
[4] abbreviates: human, s9, Table 2, read-out: Prodrug Clint Hum Liver S9.

Usually Papp stands for a coefficient for how fast a substance crosses the barrier. A lower Papp goes with poor permeation.

On to `CC(C)C(=O)OC(OC(=O)N[C@@H](Cc1ccccn1)c1ccccc1)C(C)C` (single isomer, unassigned) [Example 2 Diastereomer 2], for which the microsomal CLint in data set [1] (setting [3]) was 1900 µL/min/mg.

As for `CC(OC(=O)N[C@@H](Cc1ccccn1)c1ccccc1)OC(=O)C(C)C` (single isomer, unassigned) [Example 4 Diastereomer 1], the microsomal CLint in data set [1] (setting [3]) was found to be 1200 µL/min/mg. Consider `Cl.Cl.N[C@@H](Cc1ccccn1)c1ccccc1` [Compound 1, as di-HCl salt, (S)-1-phenyl-2-(pyridin-2-yl)ethanamine dihydrochloride, reference compound], for which, in the data set on Seizures in dog, the “LOEL Seizures in dog (Dose administered)” value is reported as “(20 mg/kg)” and the “NOEL Seizures in dog (Dose administered)” value is listed as “(10 mg/kg)”. As to `CC(C)C(=O)OCOC(=O)N[C@@H](Cc1ccccn1)c1ccccc1` [Example 1, (S)-(1-Phenyl-2-(pyridin-2-yl)ethylcarbamoyloxy)methyl isobutyrate], the microsomal CLint in data set [1] (setting [3]) came to 2300 µL/min/mg. `CC(C)[C@H](N)C(=O)N1CCC[C@H]1C(=O)N[C@@H](Cc1ccccn1)c1ccccc1` [Example 5, (S)-1-((S)-2-Amino-3-methylbutanoyl)-N—((S)-1-phenyl-2-(pyridin-2-yl)ethyl)pyrrolidine-2-carboxamide]: the microsomal CLint in data set [1] (setting [4]) was 120 µL/min/mg. Besides, in “Caco-2 permeability”, the Papp amounted to 1.4 ×10⁻⁶ cm/s. Moreover, the “risk of seizures, as represented by NOEL and LOEL” value in the data set with Seizures in dog (dogs, prodrug versus (S)-1-phenyl-2-(pyridin-2-yl)ethanamine dihydrochloride) is “less”. Also, in data set [2], the “increase in concentration of (S)-1-phenyl-2-(pyridin-2-yl)ethanamine with increasing doses of prodrug” value is reported as “less than proportional increases”. Consider `NCCCC[C@H](N)C(=O)N1CCC[C@H]1C(=O)N[C@@H](Cc1ccccn1)c1ccccc1` [Example 6, (S)-1-((S)-2,6-Diaminohexanoyl)-N—((S)-1-phenyl-2-(pyridin-2-yl)ethyl)pyrrolidine-2-carboxamide], for which, in data set [1] (setting [4]), the microsomal CLint worked out at 73 µL/min/mg. Also, the Papp in “Caco-2 permeability” stood at 0.07 ×10⁻⁶ cm/s. As to `N[C@@H](Cc1c[nH]cn1)C(=O)N1CCC[C@H]1C(=O)N[C@@H](Cc1ccccn1)c1ccccc1` [Example 7, (S)-1-((S)-2-Amino-3-(1H-imidazol-4-yl)propanoyl)-N—((S)-1-phenyl-2-(pyridin-2-yl)ethyl)pyrrolidine-2-carboxamide], in data set [1] (setting [4]), the microsomal CLint amounted to 33 µL/min/mg. For the same compound, in the data set “Caco-2 permeability”, the Papp was 1.6 ×10⁻⁶ cm/s. As to `N[C@@H](Cc1ccc(O)cc1)C(=O)N1CCC[C@H]1C(=O)N[C@@H](Cc1ccccn1)c1ccccc1` [Example 8, 2-((S)-2-((S)-1-((S)-2-Amino-3-(4-hydroxyphenyl)propanoyl)pyrrolidine-2-carboxamido)-2-phenylethyl)pyridine dihydrochloride], the microsomal CLint in data set [1] (Table 2, read-out: Prodrug Clint Hum Liver S9) was found to be 51 µL/min/mg. In the data set “Caco-2 permeability”, the Papp was 3.2 ×10⁻⁶ cm/s.

For the compound `N=C(N)NCCC[C@H](N)C(=O)N1CCC[C@H]1C(=O)N[C@@H](Cc1ccccn1)c1ccccc1` [Example 12, 2-[(2S)-2-{[(2S)-1-[(2S)-2-Azaniumyl-5-{[azaniumyl(iminiumyl)methyl]amino}pentanoyl]-pyrrolidin-2-yl]formamido}-2-phenylethyl]pyridin-1-ium tetrachloride], in data set [1] (setting [4]), the microsomal CLint is 69 µL/min/mg. In the data set “Caco-2 permeability”, the apparent permeability (Papp) was found to be 8.6 ×10⁻⁶ cm/s.

For the compound `CC(C)[C@H](N)C(=O)N1CCC[C@H]1C(=O)N[C@@H](Cc1ccccn1)c1ccccc1` [Prodrug of Compound 1, as fumarate salt, (S)-1-((S)-2-Amino-3-methylbutanoyl)-N-((S)-1-phenyl-2-(pyridin-2-yl)ethyl)pyrrolidine-2-carboxamide fumerate], in the data set with Seizures in dog, the “LOEL Seizures in dog (Dose administered)” value was “(60 mg/kg)” and the “NOEL Seizures in dog (Dose administered)” value was “(20 mg/kg)”.
